Measured values taken from article PMC10176470, “Engaging a Non-catalytic Cysteine Residue Drives Potent and Selective Inhibition of Caspase-6” (Journal of the American Chemical Society, 2023).

What was measured:
Assay type in all cases: cell-based
[1] = target: proteins of HEK293T cells transiently overexpressing caspase-6 (Homo sapiens, UniProt P0DPI2); details: exp_ref Probe; protein C21orf33 (P30042); analysis C6
[2] = target: T1, proteins of HEK293T cells transiently overexpressing caspase-6 (Homo sapiens, UniProt P55060); details: protein CSE1L (P55060)
T1 sequence (P55060 1-971): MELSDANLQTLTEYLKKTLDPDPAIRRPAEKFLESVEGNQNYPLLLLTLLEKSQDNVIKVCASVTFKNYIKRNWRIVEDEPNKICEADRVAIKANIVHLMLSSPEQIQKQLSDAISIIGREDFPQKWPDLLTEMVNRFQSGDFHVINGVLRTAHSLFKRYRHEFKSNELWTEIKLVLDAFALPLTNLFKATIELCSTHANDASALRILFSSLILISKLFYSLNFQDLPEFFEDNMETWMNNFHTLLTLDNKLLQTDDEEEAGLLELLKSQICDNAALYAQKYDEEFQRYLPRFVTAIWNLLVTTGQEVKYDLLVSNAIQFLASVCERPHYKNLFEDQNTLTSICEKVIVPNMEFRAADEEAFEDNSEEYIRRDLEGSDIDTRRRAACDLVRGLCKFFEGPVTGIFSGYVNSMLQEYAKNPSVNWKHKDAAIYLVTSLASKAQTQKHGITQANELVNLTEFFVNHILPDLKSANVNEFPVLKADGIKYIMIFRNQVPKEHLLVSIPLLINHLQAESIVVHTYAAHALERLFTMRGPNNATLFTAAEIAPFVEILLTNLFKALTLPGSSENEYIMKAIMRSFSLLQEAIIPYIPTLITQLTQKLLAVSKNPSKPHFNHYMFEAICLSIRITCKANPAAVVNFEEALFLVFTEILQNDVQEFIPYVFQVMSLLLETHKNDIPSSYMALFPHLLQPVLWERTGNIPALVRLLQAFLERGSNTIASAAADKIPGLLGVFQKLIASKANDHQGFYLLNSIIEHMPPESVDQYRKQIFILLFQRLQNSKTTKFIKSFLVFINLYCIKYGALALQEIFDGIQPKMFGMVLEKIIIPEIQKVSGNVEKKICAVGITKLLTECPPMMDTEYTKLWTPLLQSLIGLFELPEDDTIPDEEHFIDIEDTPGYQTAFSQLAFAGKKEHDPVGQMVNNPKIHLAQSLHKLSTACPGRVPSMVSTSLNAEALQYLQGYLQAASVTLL

[3] = target: proteins of HEK293T cells transiently overexpressing caspase-6 (Homo sapiens, UniProt P28838); details: exp_ref Probe; protein LAP3 (P28838); analysis C6
proteins of HEK293T cells transiently overexpressing caspase-6 (Homo sapiens, UniProt P28838), sequence (P28838 whole entry): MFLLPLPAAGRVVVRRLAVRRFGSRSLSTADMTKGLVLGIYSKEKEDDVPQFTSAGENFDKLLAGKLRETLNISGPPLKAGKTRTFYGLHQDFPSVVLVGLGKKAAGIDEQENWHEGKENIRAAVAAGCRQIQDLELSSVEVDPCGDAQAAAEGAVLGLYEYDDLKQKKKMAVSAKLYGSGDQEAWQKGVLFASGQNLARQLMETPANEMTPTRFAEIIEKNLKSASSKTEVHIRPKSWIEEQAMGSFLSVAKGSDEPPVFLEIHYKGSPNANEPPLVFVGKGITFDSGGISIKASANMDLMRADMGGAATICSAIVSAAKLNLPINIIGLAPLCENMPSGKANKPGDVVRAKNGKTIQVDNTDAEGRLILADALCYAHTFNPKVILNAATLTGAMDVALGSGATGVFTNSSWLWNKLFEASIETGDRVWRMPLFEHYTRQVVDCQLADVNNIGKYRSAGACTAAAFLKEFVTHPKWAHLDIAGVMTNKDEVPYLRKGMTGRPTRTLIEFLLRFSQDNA

[4] = target: proteins of HEK293T cells transiently overexpressing caspase-6 (Homo sapiens, UniProt P06733); details: protein ENO1 (P06733)
proteins of HEK293T cells transiently overexpressing caspase-6 (Homo sapiens, UniProt P06733), sequence (P06733 whole entry): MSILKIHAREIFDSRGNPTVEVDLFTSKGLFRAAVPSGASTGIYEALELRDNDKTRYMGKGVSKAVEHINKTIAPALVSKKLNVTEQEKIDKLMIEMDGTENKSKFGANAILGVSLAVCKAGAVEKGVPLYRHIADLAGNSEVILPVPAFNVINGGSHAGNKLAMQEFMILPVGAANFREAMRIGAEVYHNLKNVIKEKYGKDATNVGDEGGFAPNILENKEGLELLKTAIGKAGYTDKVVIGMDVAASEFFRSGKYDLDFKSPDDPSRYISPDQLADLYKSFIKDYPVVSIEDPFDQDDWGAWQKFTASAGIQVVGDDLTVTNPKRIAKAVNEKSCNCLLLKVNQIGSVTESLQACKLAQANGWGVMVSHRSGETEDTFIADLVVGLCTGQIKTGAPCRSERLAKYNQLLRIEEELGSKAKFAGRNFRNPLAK

[5] = target: proteins of HEK293T cells transiently overexpressing caspase-6 (Homo sapiens, UniProt Q9BT22); details: exp_ref Probe; protein ALG1 (Q9BT22); analysis C6
proteins of HEK293T cells transiently overexpressing caspase-6 (Homo sapiens, UniProt Q9BT22), sequence (Q9BT22 whole entry): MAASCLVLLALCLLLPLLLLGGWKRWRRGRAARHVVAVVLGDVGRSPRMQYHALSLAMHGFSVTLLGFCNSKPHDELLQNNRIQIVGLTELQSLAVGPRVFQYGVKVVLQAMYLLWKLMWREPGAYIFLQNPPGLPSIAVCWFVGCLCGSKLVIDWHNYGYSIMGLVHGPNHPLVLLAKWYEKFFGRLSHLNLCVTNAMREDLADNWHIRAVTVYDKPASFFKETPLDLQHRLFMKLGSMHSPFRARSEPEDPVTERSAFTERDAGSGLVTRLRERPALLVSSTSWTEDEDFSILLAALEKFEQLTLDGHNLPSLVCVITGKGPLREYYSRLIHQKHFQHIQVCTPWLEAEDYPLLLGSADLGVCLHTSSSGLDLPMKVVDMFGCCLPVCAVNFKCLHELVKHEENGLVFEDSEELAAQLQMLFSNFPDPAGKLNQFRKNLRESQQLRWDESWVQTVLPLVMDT

[6] = target: T2, proteins of HEK293T cells transiently overexpressing caspase-6 (Homo sapiens, UniProt P27824); details: protein CANX (P27824)
T2 sequence (P27824 21-592): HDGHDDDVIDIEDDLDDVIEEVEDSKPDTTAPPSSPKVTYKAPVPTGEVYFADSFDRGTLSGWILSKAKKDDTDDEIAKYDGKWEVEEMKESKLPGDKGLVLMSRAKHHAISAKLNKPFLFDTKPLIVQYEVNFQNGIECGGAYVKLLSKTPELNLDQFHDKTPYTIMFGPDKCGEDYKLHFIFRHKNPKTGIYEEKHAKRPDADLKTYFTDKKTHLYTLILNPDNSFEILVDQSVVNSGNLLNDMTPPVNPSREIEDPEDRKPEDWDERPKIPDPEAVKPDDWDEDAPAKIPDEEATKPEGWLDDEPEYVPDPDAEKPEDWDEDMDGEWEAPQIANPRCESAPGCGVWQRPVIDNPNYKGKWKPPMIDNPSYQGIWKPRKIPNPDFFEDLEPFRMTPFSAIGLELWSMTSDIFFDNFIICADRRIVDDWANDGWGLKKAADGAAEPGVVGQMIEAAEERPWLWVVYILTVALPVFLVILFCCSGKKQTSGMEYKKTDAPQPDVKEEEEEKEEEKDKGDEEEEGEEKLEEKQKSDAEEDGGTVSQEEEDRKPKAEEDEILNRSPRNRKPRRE

[7] = target: proteins of HEK293T cells transiently overexpressing caspase-6 (Homo sapiens, UniProt P62424); details: exp_ref Probe; protein RPL7A (P62424); analysis C6
[8] = target: proteins of HEK293T cells transiently overexpressing caspase-6 (Homo sapiens, UniProt P14618); details: protein PKM (P14618)
proteins of HEK293T cells transiently overexpressing caspase-6 (Homo sapiens, UniProt P14618), sequence (P14618 whole entry): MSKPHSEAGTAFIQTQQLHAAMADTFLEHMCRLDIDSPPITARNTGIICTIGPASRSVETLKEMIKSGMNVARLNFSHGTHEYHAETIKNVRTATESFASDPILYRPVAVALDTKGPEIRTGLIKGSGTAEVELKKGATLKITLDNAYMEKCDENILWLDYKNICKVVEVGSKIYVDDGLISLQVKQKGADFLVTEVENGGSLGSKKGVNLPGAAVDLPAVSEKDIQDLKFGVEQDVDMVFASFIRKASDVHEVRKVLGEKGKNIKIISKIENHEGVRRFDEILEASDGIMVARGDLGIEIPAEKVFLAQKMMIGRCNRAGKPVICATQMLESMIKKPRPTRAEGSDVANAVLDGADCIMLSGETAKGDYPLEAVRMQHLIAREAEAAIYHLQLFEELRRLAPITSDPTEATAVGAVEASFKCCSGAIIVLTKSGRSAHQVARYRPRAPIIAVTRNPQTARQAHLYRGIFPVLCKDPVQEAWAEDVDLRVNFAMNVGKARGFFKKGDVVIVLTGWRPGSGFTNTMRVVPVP

[9] = target: proteins of HEK293T cells transiently overexpressing caspase-6 (Homo sapiens, UniProt P33991); details: exp_ref Probe; protein MCM4 (P33991); analysis C6
proteins of HEK293T cells transiently overexpressing caspase-6 (Homo sapiens, UniProt P33991), sequence (P33991 whole entry): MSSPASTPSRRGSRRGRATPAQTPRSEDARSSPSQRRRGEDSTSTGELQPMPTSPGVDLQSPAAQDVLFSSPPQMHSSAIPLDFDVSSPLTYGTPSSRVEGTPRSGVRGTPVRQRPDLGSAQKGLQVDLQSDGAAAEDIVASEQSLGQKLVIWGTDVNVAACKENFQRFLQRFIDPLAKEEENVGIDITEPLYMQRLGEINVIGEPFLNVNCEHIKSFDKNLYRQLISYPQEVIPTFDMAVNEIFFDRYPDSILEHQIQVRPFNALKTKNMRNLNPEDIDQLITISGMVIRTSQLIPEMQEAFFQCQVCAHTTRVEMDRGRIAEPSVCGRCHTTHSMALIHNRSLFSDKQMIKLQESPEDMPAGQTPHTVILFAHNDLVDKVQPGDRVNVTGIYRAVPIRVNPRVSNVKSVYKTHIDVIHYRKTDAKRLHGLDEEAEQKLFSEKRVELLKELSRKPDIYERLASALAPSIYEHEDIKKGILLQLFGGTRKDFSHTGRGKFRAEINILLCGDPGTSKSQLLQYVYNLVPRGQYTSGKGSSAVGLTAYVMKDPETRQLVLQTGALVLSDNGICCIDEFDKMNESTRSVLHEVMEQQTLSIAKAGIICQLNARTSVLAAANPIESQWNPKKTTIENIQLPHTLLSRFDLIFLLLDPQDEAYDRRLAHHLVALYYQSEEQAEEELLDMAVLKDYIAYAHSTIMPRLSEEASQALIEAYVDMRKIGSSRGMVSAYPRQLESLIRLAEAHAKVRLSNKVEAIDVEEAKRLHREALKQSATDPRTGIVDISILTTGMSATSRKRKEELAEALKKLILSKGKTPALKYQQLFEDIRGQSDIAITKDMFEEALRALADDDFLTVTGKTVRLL

proteins of HEK293T cells transiently overexpressing caspase-6 (Homo sapiens, UniProt P0DPI2), sequence (P0DPI2 42-268): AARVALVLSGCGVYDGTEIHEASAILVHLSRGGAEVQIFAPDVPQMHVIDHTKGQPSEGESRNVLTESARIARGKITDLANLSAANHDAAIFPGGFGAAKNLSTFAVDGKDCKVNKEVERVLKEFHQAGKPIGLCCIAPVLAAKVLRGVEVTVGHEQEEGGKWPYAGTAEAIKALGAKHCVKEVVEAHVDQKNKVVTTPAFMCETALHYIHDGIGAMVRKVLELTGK

`C#CCOc1ccc([C@@H]2C[C@@H](C(=O)Nc3ccc(OC(F)(F)F)cc3)CN(S(=O)(=O)C=C)C2)cc1` (relative stereo) [13-t] gave an enrich.exp.med [1] of -0.3681, an enrich.exp.med ([2]; exp_ref Probe, analysis C6) of 1.237 and an enrich.exp.med.lin [2] of 2.357. The enrich.exp.med.log2 [2] was 1.237, the enrich.exp.med [3] was 0.6337 and the enrich.exp.med ([4]; exp_ref Probe, analysis C6) was 0.5104. For the same compound, the enrich.exp.med.lin [4] was 1.424, the enrich.exp.med.log2 [4] was 0.5104 and the enrich.exp.med [5] was 0.4836. The enrich.exp.med ([6]; exp_ref Probe, analysis C6) was 0.4691, the enrich.exp.med.lin [6] was 1.384 and the enrich.exp.med.log2 [6] was 0.4691. For the same compound, the enrich.exp.med [7] was 0.8961, the enrich.exp.med ([8]; exp_ref Probe, analysis C6) was 0.4939 and the enrich.exp.med.lin [8] was 1.408. It also gave an enrich.exp.med.log2 [8] of 0.4939 and an enrich.exp.med [9] of 1.006.
